pIC50: −log10 of the molar value.
Key:
[1] = test system: HIV-1 reverse transcriptase; experiment: Amp-RT assay, inhibition by 3TC-TP, reference viruses; type: biochemical
From the text: The phenotypic assay used in this example was based on the analysis of the susceptibility of HIV-1 reverse transcriptase activity from plasma to inhibition by 3TC-TP.
The assay detects reverse transcriptase activity by using a nonretroviral heteropolymeric RNA template derived from the encephalomyocarditis virus (EMCV) genome, and a complementary EMCV-specific DNA oligoprimer. The RT-generated EMCV cDNA is detected by PCR amplification and internal oligoprobing of the PCR product with an EMCV-specific probe.
Amp-RT detects reverse transcriptase activity by using a heterologous RNA template derived from the encephalomyocarditis virus (EMCV), a complementary DNA oligoprimer, and PCR amplification of reverse transcriptase-generated EMCV cDNA. […] To determine the susceptibility of the reverse transcriptase to 3TC-TP, an additional Amp-RT reaction was made in the presence of 3TC-TP, with concentrations of 3TC-TP ranging from 0.1 to 10 μM. […] PCR amplification of reverse transcriptase products was made as follows after the addition of 200 μM of each dNTP. A volume of 50 μl of PCR buffer containing 2.5 units of Taq polymerase, 100 ng of the sense primer EMCF1, and 200 μM of each dNTP was added to the reverse transcriptase mixture.
Wild type HIV-1SUM9, and multiple dideoxy nucleoside-resistant HIV-1SUM8 (Q151M mutation), HIV-1SUM12 (F77L/F116Y/Q151M) and HIV-1SUM13 (A62V/V751/F77L/F116Y/Q151M) MICs were provided by Dr. Mitsuya as described by Shirasaka et al., Proc. Natl. Acad. Sci. USA 92: 2398-2402 (1995). The synthesis and preparation of 3TC-TP were carried out as described by Schinazi et al., Antimicrob. Agents Chemother. 36: 2423-2431 (1992). The crude 3TC-5-TP was purified by FPLC using a HiLoad 26/10Q Sepharose Fast Flow™ Pharmacia chromatography column (Pharmacia, Piscataway, N.J.) and gradient of TEAE buffer (pH 7.0). The compound was characterized by UV spectroscopy, proton and phosphorous NMR, mass spectroscopy and HPLC.
Inhibition of reverse transcriptase by 3TC-TP results from the ability of 3TC-TP to act as a competitive inhibitor for 2′-deoxycytidine-5′-triphosphate (dCTP) and chain terminator as described by Arts and Wainberg, Antimicrob. Agents Chemother. 40: 527-540 (1996). To determine the optimal ratio of 3TC-TP and dCTP needed to inhibit wild type HIV-1 reverse transcriptase, but not 3TC-resistant reverse transcriptase, reverse transcriptase were tested from a wild type (xxBRUpitt) and a 3TC-resistant (M184Vpitt) HIV-1 in the presence of increasing concentrations of 3TC-TP (from 0.1 to 10 μM) and a fixed concentration of dCTP (5 μM).

HIV-1 RT = experiment: Amp-RT assay, AZT-TP and other NRTI-TPs, reference viruses; type: biochemical; conditions: for % inhibition (SEM) / inhibition of RT activity / inhibition of activity: 1 μM AZT-TP; for inhibition of RT activity: ~1.882×10^−7 to ~1.882×10^−5 units of RT activity per ml
[2] = 5 μM 3TC-TP, wild type HIV-1, 10^−6 units of RT activity
[3] = MNR HIV-1SUM12 (F77L, F116Y, Q151M)
[4] = MNR HIV-1SUM13 (A62V, V75I, F77L, F116Y, Q151M)
[5] = classical AZT-resistant HIV-1 R598 (D67N, V106A, L210W, L214F, T215Y)
[6] = classical AZT-resistant HIV-1RTMC/MT2 (D67N, K70R, T215F, K219Q)

## Nc1ccn([C@@H]2CS[C@H](COP(=O)(O)OP(=O)(O)OP(=O)(O)O)O2)c(=O)n1 [3TC-TP, 3TC-5′-triphosphate]
[1]; 5 μM 3TC-TP, 3TC-resistant HIV-1 (M184Vpitt), high or low input of RT
  inhibition of reverse transcriptase: No significant inhibition
[1]; 5 μM 3TC-TP, mixture with 25% 3TC-resistant (M184Vpitt) virus in wild type xxBRUpitt
  inhibition of RT activity: 87%
[1]; 5 μM 3TC-TP, mixture with 75% 3TC-resistant (M184Vpitt) virus in wild type xxBRUpitt
  inhibition of RT activity: 26%
[1]; [2]
  drop in Amp-RT virus load: 2.35 log10
  residual reverse transcriptase activity (of control without 3TC-TP): 0.4%
[1]; 5 μM 3TC-TP, wild type xxBRUpitt, 10^−7 and 10^−8 units of RT activity
  inhibition of reverse transcriptase: complete inhibition
[1]; HIV-1SUM8 (Q151M)
  IC90 relative to reference viruses: approximately two-fold higher
[1]; HIV-1SUM12, three MD resistance mutations (F77L/F116Y/Q151M)
  increase in IC50 compared to wild type virus: six-
[1]; HIV-1SUM13, all five MD resistance mutations
  increase in IC50 compared to wild type virus: eight-fold
HIV-1 RT; MNR HIV-1SUM8 (Q151M)
  pIC50: 6.05
  fold resistance (IC50) as compared to the mean IC values of WT HIV-1: (1.8) fold
HIV-1 RT; [3]
  pIC50: 5.57
  fold resistance (IC50) as compared to the mean IC values of WT HIV-1: (5.4) fold
HIV-1 RT; [4]
  pIC50: 5.48
  fold resistance (IC50) as compared to the mean IC values of WT HIV-1: (6.6) fold
HIV-1 RT; WT HIV-1SUM9
  pIC50: 6.40
HIV-1 RT; WT HIV-1xxBRUpitt
  pIC50: 6.22

## Cc1cn([C@H]2C[C@H](N=[N+]=[N-])[C@@H](COP(=O)(O)OP(=O)(O)OP(=O)(O)O)O2)c(=O)[nH]c1=O [AZT-TP, AZT-triphosphate]
HIV-1 RT; HIV-1LAI, WT
  % inhibition (SEM): 99.9 (±0.02) %
HIV-1 RT; HIV-1M184Vpitt, M184V
  % inhibition (SEM): 91.1 (±3.3) %
HIV-1 RT; HIV-1R598, D67N, V106A, L210W, L214F, T215Y
  % inhibition (SEM): 97.8 (±2.2) %
HIV-1 RT; HIV-1RTMC/MT-2, D67N, K70R, T215F, K219Q
  % inhibition (SEM): 91.5 (±8.5) %
HIV-1 RT; HIV-1RTMDRI/MT-2, M41L, L74V, V106A, T215Y
  % inhibition (SEM): 94.6 (±5.4) %
HIV-1 RT; HIV-1RTMF/MT-2, T215Y
  % inhibition (SEM): 96 (±4) %
HIV-1 RT; HIV-1SUM8, Q151M
  % inhibition (SEM): 26.6 (±6.1) %
HIV-1 RT; HIV-1SUM8
  inhibition of RT activity: 50%
HIV-1 RT; HIV-1SUM9, WT
  % inhibition (SEM): 95.8 (±1.4) %
HIV-1 RT; HIV-1SUM12, F77L, F116V, Q151M
  % inhibition (SEM): 13.1 (±5.5) %
HIV-1 RT; HIV-1SUM12 and HIV-1SUM13
  inhibition of RT activity: < 15%
HIV-1 RT; HIV-1SUM13, A62V, V75I, F77L, F116Y, Q151M
  % inhibition (SEM): 12.9 (±2.8) %
HIV-1 RT; HIV-1xxBRUpitt, WT
  % inhibition (SEM): 93.5 (±6.5) %
HIV-1 RT; WT HIV-1SUM9
  inhibition of RT activity: > 85%
  pIC50: 6.30
  IC90: 1000 nM
HIV-1 RT; WT RT (HIV-1SUM9) alone
  inhibition of activity: 91%
HIV-1 RT; mixture containing 10% MNR HIV-1SUM13 in WT HIV-1SUM9
  inhibition of activity: 17%
HIV-1 RT; mixture containing 30% or more of MNR HIV-1
  inhibition of activity: No inhibition
HIV-1 RT; 1 μM AZT-triphosphate, MNR strains
  reduction of the level of DNA products: ≤ 30%
HIV-1 RT; 1 μM AZT-triphosphate, wild-type and classical reverse transcriptase mutant strains
  reduction of the amount of DNA products: ≥ 90%
HIV-1 RT; MNR HIV-1SUM8 (Q151M)
  pIC50: 5.60
  IC90: 4500 nM
  fold resistance (IC90) as compared to the mean IC values of WT HIV-1: (4.7) fold
HIV-1 RT; [3]
  pIC50: 4.96
  IC90: 18000 nM
  fold resistance (IC90) as compared to the mean IC values of WT HIV-1: (18.6) fold
HIV-1 RT; [4]
  pIC50: 4.74
  IC90: 45000 nM
  fold resistance (IC90) as compared to the mean IC values of WT HIV-1: (46.6) fold
HIV-1 RT; WT HIV-1LAI
  pIC50: 6.30
  IC90: 900 nM
HIV-1 RT; [5]
  pIC50: 6.30
  IC90: 1000 nM
HIV-1 RT; [6]
  pIC50: 6.30
  IC90: 1000 nM

From patent US7691572B2, “Method and kit for detecting resistance to antiviral drugs” (priority 1998, dated 2010)
